In data set [1] the target is T1, Bce, oxalate decarboxylase from Bacillus cereus, SEQ ID NO: 1 (Bacillus cereus, UniProt Q81GZ6). As to conditions: 2 mM chemical, 6 days at 40° C., pH 9.5, tested at pH 3, against Bce 40° C. control.
A further data set concerns O=C(O)C(=O)O. The experiment in a line: purified protein, by the assay type. Particulars: other: Bce, pH 3.0, 37° C.
Data set [2] deals with T2, Cb6301, oxalate decarboxylase from Synechococcus elongates 6301, SEQ ID NO: 2 (Synechococcus elongatus, UniProt A0A0H3K3X3).
T2 construct: native trimer; the kinetic measurement was probably on the D29 form
T2 sequence (A0A0H3K3X3 1-389): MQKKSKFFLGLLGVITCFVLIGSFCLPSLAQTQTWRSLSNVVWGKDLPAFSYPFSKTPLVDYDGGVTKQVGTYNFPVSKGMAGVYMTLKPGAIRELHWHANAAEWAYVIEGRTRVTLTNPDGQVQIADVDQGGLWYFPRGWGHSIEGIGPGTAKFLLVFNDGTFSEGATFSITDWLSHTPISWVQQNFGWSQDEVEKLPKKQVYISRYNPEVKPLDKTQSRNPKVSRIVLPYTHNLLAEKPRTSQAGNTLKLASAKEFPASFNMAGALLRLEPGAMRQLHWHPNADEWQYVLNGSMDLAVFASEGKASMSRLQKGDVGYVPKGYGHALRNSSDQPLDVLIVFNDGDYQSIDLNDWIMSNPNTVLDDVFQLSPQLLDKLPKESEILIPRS
Briefly: Enzyme kinetics, oxalate, Cb6301 OxDC. The format is biochemical. As to conditions: Cb6301, pH 3.0 and below. On the procedure:
(§1) The enzyme kinetics of OxDC from four different species, Bce, Bcl, Cb6301_D29, and A8 were measured and compared to known kinetic data of YvrK. […] The reaction was terminated by adding 2.5N H2SO4, and analyzed for formate content by HPLC, as described in Example 1. The reaction without oxalate was included as negative control. The initial reaction rates during the first 5 minutes were determined for substrate concentrations between 0.024-12.5 mM, using same procedure described in Example 1.

Data set [3] concerns the target T1, Bce, oxalate decarboxylase from Bacillus cereus, SEQ ID NO: 1. The experiment in a line: Enzyme kinetics, oxalate degradation by Bce OxDC. As to conditions: pH 3.0 and below.
In data set [4] the test system is oxalate decarboxylase (OxDC) enzymes of Table 5. Briefly: Catalytic efficiency of the OxDC enzymes (range). In kind it is biochemical. Particulars: see Table 5. On the procedure: as §1
In data set [5] the target is T3, A8/A0, oxalate decarboxylase from Agrocybe aegerita, SEQ ID NO: 42 (Cyclocybe aegerita, UniProt A0A8S0X585).
T3 construct: A0 from fungal cells (homogenate), A8 from culture supernatant of A. aegerita; A8 also recombinant in E. coli (pColdIV, pOTIpr or pET)
T3 sequence (A0A8S0X585 with tags, fused parts or gaps): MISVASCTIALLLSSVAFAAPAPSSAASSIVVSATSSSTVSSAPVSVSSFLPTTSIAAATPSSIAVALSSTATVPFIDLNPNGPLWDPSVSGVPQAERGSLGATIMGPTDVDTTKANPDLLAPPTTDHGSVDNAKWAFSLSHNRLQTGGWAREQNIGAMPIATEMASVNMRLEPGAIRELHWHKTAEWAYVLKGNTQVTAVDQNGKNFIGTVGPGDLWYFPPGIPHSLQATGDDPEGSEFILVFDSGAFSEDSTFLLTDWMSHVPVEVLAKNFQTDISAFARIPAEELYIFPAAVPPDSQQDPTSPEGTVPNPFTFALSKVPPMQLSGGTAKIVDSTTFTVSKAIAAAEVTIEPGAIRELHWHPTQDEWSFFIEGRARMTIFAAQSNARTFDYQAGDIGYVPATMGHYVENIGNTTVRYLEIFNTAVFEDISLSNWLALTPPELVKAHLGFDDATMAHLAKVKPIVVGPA
The experiment in a line: Enzyme kinetics, oxalate degradation by A8/A0 OxDC. The format is biochemical. On the procedure:
(§2) The enzyme kinetics of OxDC from four different species, Bce, Bcl, Cb6301_D29, and A8 were measured and compared to known kinetic data of YvrK. […] The A8 enzyme was measured at four independent pH's of: 5.0, 4.0, 3.5 and 3.0. […] The reaction was terminated by adding 2.5N H2SO4, and analyzed for formate content by HPLC, as described in Example 1. The reaction without oxalate was included as negative control. The initial reaction rates during the first 5 minutes were determined for substrate concentrations between 0.024-12.5 mM, using same procedure described in Example 1.
(§3) To determine the kinetic parameters, kcat and Km, the reaction rates v0 at different substrate concentration [S] were fit to Michaelis-Menten equation in KaleidaGraph software: v0=kcat*[E]t*[S]/(Km+[S])
(§4) Unprotonated glutamic acids in an undisrupted active site are more likely to be kept unprotonated than the equivalent residues in a disrupted active site (such as the active site of a disrupted hexamer).

The test system of data set [6] is oxalate decarboxylases A8, Cb6301, Cb6312, Cb6803 and Bce. The experiment in a line: Affinity for oxalate of A8, Cb6301, Cb6312, Cb6803 and Bce (range). In kind it is biochemical. Here is the method:
as §1

In data set [7] the test system is YvrK, oxalate decarboxylase from Bacillus subtilis, SEQ ID NO: 47. As to conditions: cited from earlier work.
Substrate in data set [8]: O=C(O)C(=O)O
Briefly: purified protein, by the assay type. In kind it is biochemical, Bacillus clausii. Particulars: other: Bcl, oxalate, pH 3.0, 37° C.

Substrate in data set [9]: O=C(O)C(=O)O
Briefly: purified protein, by the assay type. In kind it is biochemical, Synechococcus elongates 6301. As to conditions: other: Cb6301_D29, oxalate, pH 3.0, 37° C. Here is the method:
as §2, §3

Substrate in data set [10]: O=C(O)C(=O)O
Briefly: purified protein, by the assay type. In kind it is biochemical, Agrocybe aegerita. On the procedure: as §2, §3, §4

[11] abbreviates: other: A8, pH 3.0, 37° C., pH 3.0, 37.0 °C.

Like-named read-outs stand apart in the source and are kept apart here. A value given as a limit tells only on which side of the number the result lay.

T1 sequence (Q81GZ6 entry or part of it): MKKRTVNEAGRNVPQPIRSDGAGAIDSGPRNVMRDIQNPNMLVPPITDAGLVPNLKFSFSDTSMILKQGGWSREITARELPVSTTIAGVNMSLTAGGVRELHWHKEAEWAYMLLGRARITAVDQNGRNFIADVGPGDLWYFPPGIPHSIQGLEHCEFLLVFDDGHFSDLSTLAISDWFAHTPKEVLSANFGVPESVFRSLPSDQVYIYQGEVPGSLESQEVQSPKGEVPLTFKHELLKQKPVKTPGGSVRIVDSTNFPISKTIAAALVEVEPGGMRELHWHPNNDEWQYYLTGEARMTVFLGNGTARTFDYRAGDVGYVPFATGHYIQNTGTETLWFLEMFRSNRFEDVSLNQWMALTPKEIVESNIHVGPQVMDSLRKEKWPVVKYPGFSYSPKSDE

As to `O=C(O)CN(CCN(CC(=O)O)CC(=O)O)CC(=O)O` [EDTA], the enzyme activity entry in [1] was “decreases significantly”.

The term kcat denotes the maximal rate divided by the concentration of active sites. The term kcat/Km denotes the turnover number divided by the Michaelis constant. Turning to “Bce, oxalate decarboxylase from Bacillus cereus, SEQ ID NO: 1 (Bacillus cereus ATCC 14579)”, in the data set on O=C(O)C(=O)O, the kcat turned out to be 11.2 s⁻¹ and the kcat/Km is 35000 M⁻¹ s⁻¹.

A word on the Km: it is the substrate concentration at which the rate is half of its maximum. A word on the kcat/KM: it is the second-order rate constant that governs catalysis at low substrate concentration. In the case of `O=C(O)C(=O)O` [oxalate], the Km in data set [2] is less than 1000 µM; in data set [3] it was less than 1000 µM; in data set [5] (A8/A0, pH 3.0 and below), less than 1000 µM; in data set [6], 80 to 500 µM; in data set [7] (YvrK, oxalate, pH 4.2, 22° C.) it was 8400 µM; in [7] (YvrK, pH 4.0), 8400 µM. The Km in data set [7] (Yvrk, pH not given) was 8400 µM. Further, in [4], the catalytic efficiency was 871-77000 conversions/M/s. In data set [5] (A8, pH 5.0, 4.0, 3.5 and 3.0), the “Km as a function of pH” value is “decreases as the pH becomes more acidic”. Further, in [7] (YvrK, pH 4.2, 22° C.), the kcat was 53 s⁻¹. In addition, the specificity constant (kcat/KM) in data set [7] (YvrK, pH 4.2, 22° C.) is 6310 M⁻¹ s⁻¹.

B1: Bcl, oxalate decarboxylase from Bacillus clausii, SEQ ID NO: 41 (Shouchella clausii KSM-K16) (protein)
chain: MKRGDNVKPLKGNPNIPQPIRADGAGGVDRGPRNLMRDLQNPNILVPPETDRGLIPNLRFSFSDAHMQLNHGGWSREITQRDLPIATTLAGVNMSLTPGGVRELHWHKQAEWSYMLLGHARITAVDQNGRNFIADVGPGDLWYFPPGIPHSIQGLDDGCEFLLVFDDGMFSDLSTLSLSDWMAHTPKDVLSANFGVPESVFATIPTEQVYIYQDEVPGPLQSQQINSPYGAVPQTFKHELLKQPPLVTPGGSVRIVDSRNFPVSKTIAAALVEVEPGAMREMHWHPNNDEWQYYLTGQARMTVFTGNGVARTFDYRAGDVGYVPFATGHYIQNTGNESVWFLEMFKSDRFEDVSLNQWLALTPTELVQHNIHVDSKFTNKLRKEKWPVVKYPTI
In the case of B1, in data set [8], the Km was 1200 µM, the kcat came out at 1.05 s⁻¹ and the kcat/Km is 871 M⁻¹ s⁻¹.

B2: Cb6301_D29, oxalate decarboxylase from Synechococcus elongates 6301 where the first 29 amino acids at the n-terminus has been removed, SEQ ID NO: 3 … (protein)
chain: MQTQTWRSLSNVVWGKDLPAFSYPFSKTPLVDYDGGVTKQVGTYNFPVSKGMAGVYMTLKPGAIRELHWHANAAEWAYVIEGRTRVTLTNPDGQVQIADVDQGGLWYFPRGWGHSIEGIGPGTAKFLLVFNDGTFSEGATFSITDWLSHTPISWVQQNFGWSQDEVEKLPKKQVYISRYNPEVKPLDKTQSRNPKVSRIVLPYTHNLLAEKPRTSQAGNTLKLASAKEFPASFNMAGALLRLEPGAMRQLHWHPNADEWQYVLNGSMDLAVFASEGKASMSRLQKGDVGYVPKGYGHALRNSSDQPLDVLIVFNDGDYQSIDLNDWIMSNPNTVLDDVFQLSPQLLDKLPKESEILIPRS
notes: start Met followed by residues 31-389), recombinant in E. coli
For B2, in [9], the Km was found to be 200 µM, the kcat worked out at 15.4 s⁻¹ and the kcat/Km was 77000 M⁻¹ s⁻¹.

B3: A8/A0, oxalate decarboxylase from Agrocybe aegerita, SEQ ID NO: 42 (Cyclocybe aegerita) (protein)
chain: MISVASCTIALLLSSVAFAAPAPSSAASSIVVSATSSSTVSSAPVSVSSFLPTTSIAAATPSSIAVALSSTATVPFIDLNPNGPLWDPSVSGVPQAERGSLGATIMGPTDVDTTKANPDLLAPPTTDHGSVDNAKWAFSLSHNRLQTGGWAREQNIGAMPIATEMASVNMRLEPGAIRELHWHKTAEWAYVLKGNTQVTAVDQNGKNFIGTVGPGDLWYFPPGIPHSLQATGDDPEGSEFILVFDSGAFSEDSTFLLTDWMSHVPVEVLAKNFQTDISAFARIPAEELYIFPAAVPPDSQQDPTSPEGTVPNPFTFALSKVPPMQLSGGTAKIVDSTTFTVSKAIAAAEVTIEPGAIRELHWHPTQDEWSFFIEGRARMTIFAAQSNARTFDYQAGDIGYVPATMGHYVENIGNTTVRYLEIFNTAVFEDISLSNWLALTPPELVKAHLGFDDATMAHLAKVKPIVVGPA
notes: A0 from fungal cells (homogenate), A8 from culture supernatant of A. aegerita; A8 also recombinant in E. coli (pColdIV, pOTIpr or pET)
On to B3, for which the Km in data set [10] (other: A0, pH not given) stood at 80 µM. In data set [10] (setting [11]), the kcat amounted to 42 s⁻¹ and the kcat/Km turned out to be 525000 M⁻¹ s⁻¹.

The values are drawn from US11603524B2 (priority 2015, dated 2023).
